Data from patent US20100137313A1 (ASTRAZENECA AB, priority 2008, published 2010).

What follows are compounds tested against S. pneumoniae Topoisomerase IV ATPase (ParE) (Streptococcus pneumoniae serotype 4, UniProt Q59961) (assay: S. pneumoniae Topoisomerase IV ATPase inhibition). Conditions: values marked * are an average of two or more data points, read-out: % Inh (13 μM) of S. pneumoniae Topoisomerase IV ATPase.
Assay type: biochemical
How it was run: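 Phosphate release by ParE ATPase from S. pneumoniae read colorimetrically (malachite green, 650 nm), enzyme 1.25 nM, ATP 160 μM, salmon sperm DNA present, buffer 20 mM Tris pH 8.0 with 8 mM MgCl2. IC50 over 10 compound concentrations, EDTA (20 μM) and DMSO controls defining inhibition range.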

Chain of S. pneumoniae Topoisomerase IV ATPase (ParE) (Q59961 whole entry): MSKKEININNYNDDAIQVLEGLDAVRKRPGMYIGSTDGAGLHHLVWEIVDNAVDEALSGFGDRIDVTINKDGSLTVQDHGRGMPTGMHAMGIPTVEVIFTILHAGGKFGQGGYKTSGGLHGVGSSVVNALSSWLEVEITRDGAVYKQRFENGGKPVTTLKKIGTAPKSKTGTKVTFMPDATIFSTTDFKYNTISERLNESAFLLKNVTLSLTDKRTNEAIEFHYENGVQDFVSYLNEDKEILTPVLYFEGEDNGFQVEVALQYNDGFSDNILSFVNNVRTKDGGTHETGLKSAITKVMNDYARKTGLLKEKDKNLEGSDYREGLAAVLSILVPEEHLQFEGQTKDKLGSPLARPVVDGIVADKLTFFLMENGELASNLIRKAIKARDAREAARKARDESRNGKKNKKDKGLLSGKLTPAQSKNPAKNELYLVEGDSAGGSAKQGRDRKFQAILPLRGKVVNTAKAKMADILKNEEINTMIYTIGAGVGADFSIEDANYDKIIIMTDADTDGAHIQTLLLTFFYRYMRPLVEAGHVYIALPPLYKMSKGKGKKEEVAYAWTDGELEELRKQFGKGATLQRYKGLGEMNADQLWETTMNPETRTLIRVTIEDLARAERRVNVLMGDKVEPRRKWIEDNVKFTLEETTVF

Row | SMILES | inhibition at 13 µM
1 | CONC(=O)c1cncc(-c2cnc(Nc3ccc(F)c(Cl)c3)nc2NCCc2cccnc2)c1 [Example 476, 5-(2-[(3-chloro-4-fluorophenyl)amino]-4-{[2-(pyridin-3-yl)ethyl]amino}pyrimidin-5-yl)-N-methoxypyridine-3-carboxamide] | 100%
2 | COc1cc(C)cc(Nc2ncc(-c3cnc(OC)c(-c4n[nH]c(=O)o4)c3)c(-n3ccc(C(F)(F)F)n3)n2)c1 [Example 1169, 5-(2-methoxy-5-{2-[(3-methoxy-5-methylphenyl)amino]-4-[3-(trifluoromethyl)-1H-pyrazol-1-yl]pyrimidin-5-yl}pyridin-3-yl)-1,3,4-oxadiazol-2(3H)-one] | 100%
3 | O=C(O)/C=C/c1cccc(-c2cnc(Nc3ccc(F)cc3)nc2N2CCOCC2)c1 [Example 447] | 50%
4 | CCOC(=O)c1cncc(-c2cnc(Nc3ccc(F)c(Cl)c3)nc2N2CCC(N3CCOCC3)CC2)c1 [Example 119, ethyl 5-[2-[(3-chloro-4-fluorophenyl)amino]-4-(4-morpholin-4-ylpiperidin-1-yl)pyrimidin-5-yl]pyridine-3-carboxylate] | 32%
5 | CCOC(=O)c1cncc(-c2cnc(Nc3ccc(F)c(Cl)c3)nc2NC(C)C)c1 [Example 116, ethyl 5-[2-[(3-chloro-4-fluorophenyl)amino]-4-(propan-2-ylamino)pyrimidin-5-yl]pyridine-3-carboxylate] | 82%
6 | CCOC(=O)/C=C/c1cccc(-c2cnc(Nc3ccc(F)c(Cl)c3)nc2NC(COC)COC)c1 [Example 173, (E)-ethyl 3-(3-(2-(3-chloro-4-fluorophenylamino)-4-(1,3-dimethoxypropan-2-ylamino)pyrimidin-5-yl)phenyl)acrylate] | 34.7%
7 | COc1cc(Nc2ncc(-c3cnc(OC)c(C(=O)NS(=O)(=O)C4=CCS(=O)(=O)C4)c3)c(-n3nc(C(F)(F)F)cc3C)n2)cc(OC)c1 [Example 840, 5-{2-[(3,5-dimethoxyphenyl)amino]-4-[5-methyl-3-(trifluoromethyl)-1H-pyrazol-1-yl]pyrimidin-5-yl}-N-[(1,1-dioxido-2,5-dihydrothiophen-3-yl)sulfonyl]-2-methoxypyridine-3-carboxamide] | 99%
8 | O=C(O)Cn1cc(-c2cnc(Nc3ccc(F)c(Cl)c3)nc2N2CCOCC2)cn1 [Example 485, (4-{2-[(3-chloro-4-fluorophenyl)amino]-4-(morpholin-4-yl)pyrimidin-5-yl}-1H-pyrazol-1-yl)acetic acid] | 85%
9 | Cc1cc(C(F)(F)F)nn1-c1nc(Nc2ccc(F)c(Cl)c2)ncc1-c1cncc(C(=O)NCCN2CCOCC2)c1 [Example 932, 5-(2-(3-chloro-4-fluorophenylamino)-4-(5-methyl-3-(trifluoromethyl)-1H-pyrazol-1-yl)pyrimidin-5-yl)-N-(2-morpholinoethyl) nicotinamide] | 100%
10 | CNC(=O)C1CCN(c2nc(Nc3ccc(F)c(Cl)c3)ncc2-c2cncnc2)CC1 [Example 63, 1-[2-[(3-chloro-4-fluorophenyl)amino]-5-pyrimidin-5-ylpyrimidin-4-yl]-N-methylpiperidine-4-carboxamide] | 69.9%
11 | COc1cc(Nc2ncc(-c3ccc(C(=O)O)s3)c(-n3nc(C(F)(F)F)cc3C)n2)cc(C(F)(F)F)c1 [Example 883, 5-(2-(3-methoxy-5-(trifluoromethyl)phenylamino)-4-(5-methyl-3-(trifluoromethyl)-1H-pyrazol-1-yl)pyrimidin-5-yl)thiophene-2-carboxylic acid] | 99%
12 | CS(=O)(=O)c1cncc(-c2cnc(Nc3ccc(F)c(Cl)c3)nc2N2CCOCC2)c1 [Example 988, N-(3-chloro-4-fluorophenyl)-5-(5-(methylsulfonyl)pyridin-3-yl)-4-morpholinopyrimidin-22-amine] | 69%
13 | OC1CCN(c2nc(Nc3ccc(F)c(Cl)c3)ncc2-c2cncnc2)CC1 [Example 60, 1-[2-[(3-chloro-4-fluorophenyl)amino]-5-pyrimidin-5-ylpyrimidin-4-yl]piperidin-4-ol] | 72.3%
14 | O=C(O)c1cccc(-c2cnc(Nc3ccc(F)c(Cl)c3)nc2-n2ccc(C(F)(F)F)n2)n1 [Example 877, 6-(2-(3-chloro-4-fluorophenylamino)-4-(3-(trifluoromethyl)-1H-pyrazol-1-yl)pyrimidin-5-yl)picolinic acid] | 100%
15 | CC(=O)Nc1cc(C(=O)O)cc(-c2cnc(Nc3ccc(F)c(Cl)c3)nc2-n2ccc(C(F)(F)F)n2)c1 [Example 1150, 3-acetamido-5-(2-(3-chloro-4-fluorophenylamino)-4-(3-(trifluoromethyl)-1H-pyrazol-1-yl)pyrimidin-5-yl)benzoic acid] | 100%
16 | CC(=O)NCCNc1nc(Nc2ccc(F)c(Cl)c2)ncc1-c1cncnc1 [Example 37, N-[2-[[2-[(3-chloro-4-fluorophenyl)amino]-5-pyrimidin-5-ylpyrimidin-4-yl]amino]ethyl] acetamide] | 76.3%

Row | SMILES | inhibition at 13 µM
17 | Fc1ccc(Nc2ncc(-c3cncnc3)c(NCc3ccco3)n2)cc1Cl [Example 53, N^2-(3-chloro-4-fluorophenyl)-N^4-(furan-2-ylmethyl)-5-pyrimidin-5-ylpyrimidine-2,4-diamine] | 70.5%
18 | O=C(O)c1cncc(-c2cnc(Nc3ccc(F)c(Cl)c3)nc2NCCc2c[nH]cn2)c1 [Example 257, 5-(2-[(3-chloro-4-fluorophenyl)amino]-4-{[2-(1H-imidazol-4-yl)ethyl]amino}pyrimidin-5-yl)pyridine-3-carboxylic acid] | 83.8%
19 | CN(C)CCCNc1nc(Nc2ccc(F)c(F)c2)ncc1-c1ccc(C(=O)O)s1 [Example 335, 5-(2-(3,4-difluorophenylamino)-4-(3-(dimethylamino)propylamino)pyrimidin-5-yl)thiophene-2-carboxylic acid] | 76.5%
20 | CC1CN(c2nc(Nc3ccc(F)c(Cl)c3)ncc2-c2cccc(/C=C/C(=O)O)c2)CC(C)O1 (stereo not shown) [Example 286, (E)-3-(3-(2-(3-chloro-4-fluorophenylamino)-4-(2,6-dimethylmorpholin-)-pyrimidin-5-yl)phenyl)acrylic acid] | 89.8%
21 | CCOC(=O)c1ccc(-c2cnc(Nc3ccc(F)c(Cl)c3)nc2NCCCN(C)C)cc1 [Example 6, Ethyl 4-(2-(3-chloro-4-fluorophenylamino)-4-(3-(dimethylamino)propylamino)pyrimidin-5-yl)benzoate] | 102%
22 | COc1cc(C)cc(Nc2ncc(-c3cc(C(=O)O)c(=O)n(C)c3)c(-n3ccc(C(F)(F)F)n3)n2)c1 [Example 859, 5-{2-[(3-methoxy-5-methylphenyl)amino]-4-[3-(trifluoromethyl)-1H-pyrazol-1-yl]pyrimidin-5-yl}-1-methyl-2-oxo-1,2-dihydropyridine-3-carboxylic acid] | 100%
23 | O=C(O)c1cncc(-c2cnc(Nc3ccc(F)c(Cl)c3)nc2-n2nc(C(F)F)cc2C(F)F)c1 [Example 532, 5-{4-[3,5-bis(difluoromethyl)-1H-pyrazol-1-yl]-2-[(3-chloro-4-fluorophenyl)amino]-pyrimidin-5-yl}pyridine-3-carboxylic acid] | 100%
24 | O=C1CCCN1CCCNc1nc(Nc2ccc(F)c(Cl)c2)ncc1-c1cncnc1 [Example 34, 1-[3-[[2-[(3-chloro-4-fluorophenyl)amino]-5-pyrimidin-5-ylpyrimidin-4-yl]amino]propyl] pyrrolidin-2-one] | 84.3%
25 | COc1cc(Nc2ncc(-c3cc(C(=O)NS(C)(=O)=O)c(=O)n(C)c3)c(-n3ccc(C(F)(F)F)n3)n2)cc(OC)c1 [Example 1019, 5-(2-(3,5-Dimethoxyphenylamino)-4-(3-(trifluoromethyl)-1H-pyrazol-1-yl)pyrimidin-5-yl)-1-methyl-N-(methylsulfonyl)-2-oxo-1,2-dihydropyridine-3-carboxamide] | 100%
26 | CN(C(=O)c1cccc(-c2cnc(Nc3ccc(F)c(Cl)c3)nc2-n2ccc(C(F)(F)F)n2)c1)S(C)(=O)=O [Example 878, 3-(2-(3-chloro-4-fluorophenylamino)-4-(3-(trifluoromethyl)-1H-pyrazol-1-yl)pyrimidin-5-yl)-N-methyl-N-(methylsulfonyl)benzamide] | 88%
27 | O=C(O)/C=C/c1cccc(-c2cnc(Nc3ccc(F)c(Cl)c3)nc2-n2ccc(-c3ccsc3)n2)c1 [Example 565, (2E)-3-(3-{2-[(3-chloro-4-fluorophenyl)amino]-4-[3-(thiophen-3-yl)-1H-pyrazol-1-yl]pyrimidin-5-yl}phenyl)prop-2-enoic acid] | 100%
28 | COc1cc(Nc2ncc(-c3cnc(OC)c(C(=O)NS(=O)(=O)c4cn(C)nc4C(F)(F)F)c3)c(-n3nc(C(F)(F)F)cc3C)n2)cc(OC)c1 [Example 845, 5-{2-[(3,5-dimethoxyphenyl)amino]-4-[5-methyl-3-(trifluoromethyl)-1H-pyrazol-1-yl]pyrimidin-5-yl}-2-methoxy-N-{[1-methyl-3-(trifluoromethyl)-1H-pyrazol-4-yl]sulfonyl}pyridine-3-carboxamide] | 92%
29 | N#Cc1cccc(Nc2ncc(-c3cccc(/C=C/C(=O)O)c3)c(-n3ccc(C(F)(F)F)n3)n2)c1 [Example 692, (2E)-3-(3-{2-[(3-cyanophenyl)amino]-4-[3-(trifluoromethyl)-1H-pyrazol-1-yl]pyrimidin-5-yl}phenyl)prop-2-enoic acid] | 97%
30 | O=C(O)c1cncc(-c2cnc(Nc3ccc(F)cc3)nc2N2CCOCC2)c1 [Example 435] | 51%
31 | COc1cc(F)cc(Nc2ncc(-c3cccc(C(=O)O)c3)c(-n3ccc(C(F)(F)F)n3)n2)c1 [Example 893, 3-(2-(3-fluoro-5-methoxyphenylamino)-4-(3-(trifluoromethyl)-1H-pyrazol-1-yl)pyrimidin-5-yl)benzoic acid] | 99%
